Results: article PMC10501769 (eLife, 2023)

biological target: Rv0158 (Mycobacterium tuberculosis, UniProt O53641); experiment: biochemical
Sequence (O53641 entry or part of it): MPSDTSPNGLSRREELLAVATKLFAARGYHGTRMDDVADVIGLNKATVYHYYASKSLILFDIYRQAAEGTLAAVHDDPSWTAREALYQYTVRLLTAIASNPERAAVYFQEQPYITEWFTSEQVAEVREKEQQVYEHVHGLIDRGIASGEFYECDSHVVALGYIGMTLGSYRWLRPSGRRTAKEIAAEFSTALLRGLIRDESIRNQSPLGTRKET

In order of rising Kd:
1. CC(C(=O)O)C(=O)SCCNC(=O)CCNC(=O)[C@H](O)C(C)(C)COP(=O)(O)OP(=O)(O)OC[C@H]1O[C@@H](n2cnc3c(N)ncnc32)[C@H](O)[C@@H]1OP(=O)(O)O (stereo partly drawn) [Methylmalonyl-CoA]  900 ± 300 nM
2. CCCCCCCCCCCC(=O)SCCNC(=O)CCNC(=O)[C@H](O)C(C)(C)COP(=O)(O)OP(=O)(O)OC[C@H]1O[C@@H](n2cnc3c(N)ncnc32)[C@H](O)[C@@H]1OP(=O)(O)O [C12-CoA]  1100 ± 600 nM
3. CCCCCCCCCCCCCCCC(=O)SCCNC(=O)CCNC(=O)[C@H](O)C(C)(C)COP(=O)(O)OP(=O)(O)OC[C@H]1O[C@@H](n2cnc3c(N)ncnc32)[C@H](O)[C@@H]1OP(=O)(O)O [C16-CoA]  1800 ± 500 nM
4. CC(C)(COP(=O)(O)OP(=O)(O)OC[C@H]1O[C@@H](n2cnc3c(N)ncnc32)[C@H](O)[C@@H]1OP(=O)(O)O)[C@@H](O)C(=O)NCCC(=O)NCCSC(=O)CC(=O)O [Malonyl-CoA]  2400 ± 1000 nM
5. CCCCCCCCCCCCCCCCCC(=O)SCCNC(=O)CCNC(=O)[C@H](O)C(C)(C)COP(=O)(O)OP(=O)(O)OC[C@H]1O[C@@H](n2cnc3c(N)ncnc32)[C@H](O)[C@@H]1OP(=O)(O)O [C18-CoA]  2800 ± 800 nM
6. CCCCCCCCCC(=O)SCCNC(=O)CCNC(=O)[C@H](O)C(C)(C)COP(=O)(O)OP(=O)(O)OC[C@H]1O[C@@H](n2cnc3c(N)ncnc32)[C@H](O)[C@@H]1OP(=O)(O)O [Decanoyl-CoA]  6400 ± 1200 nM
